Converted amounts (≈) assume the structure as drawn.
What was measured:
E coli = test: MIC assay, E coli; format: cell-based
S. aureus = test: MIC assay, S. aureus; format: cell-based, Staphylococcus aureus
E. faecalis = test: MIC assay, E. faecalis; format: cell-based, Enterococcus faecalis
S. pneumo. = test: MIC assay, S. pneumo.; format: cell-based, Streptococcus pneumoniae
H. flu = format: cell-based, H. influenza; conditions: H. flu

Row | Structure (SMILES) | MIC (μg/mL) E coli (E coli) [µg/mL] | MIC (μg/mL) S. aureus (S. aureus) [µg/mL] | MIC (μg/mL) E. faecalis (E. faecalis) [µg/mL] | MIC (μg/mL) S. pneumo. (S. pneumo.) [µg/mL] | MIC (μg/mL) H. flu (H. flu) [µg/mL]
1 | COC1C=COC2(C)Oc3c(C)c(O)c4c(=O)c(c5oc6cc(N7CC8CCCN(C)C8C7)cc(O)c6nc-5c4c3C2=O)NC(=O)C(C)=CC=CC(C)C(O)C(C)C(O)C(C)C(O)C1C [Compound 59, 25-O-deacetyl-3′-hydroxy-5′-[1-methyl-(4aS,7aS)-octahydro-6H-pyrrolo[3,4-b]pyridin-6-yl]benzoxazinorifamycin] | 4 (≈ 4.46 µM) | 0.004 (≈ 0.00446 µM) | 0.06 (≈ 0.0669 µM) | 0.001 (≈ 0.00111 µM) | 0.12 (≈ 0.134 µM)
2 | CCOC(=O)NCC1CCN(c2cc(O)c3nc4c5c6c7c(C)c(O)c5c(=O)c(c-4oc3c2)NC(=O)C(C)=CC=CC(C)C(O)C(C)C(O)C(C)C(O)C(C)C(OC)C=COC(C)(O7)C6=O)CC1 (centres unmarked) [Compound 60, 25-O-deacetyl-3′-hydroxy-5′-[4-ethylcarbamylmethyl-1-piperidinyl]benzoxazinorifamycin] | >8 | 0.008 (≈ 0.00848 µM) | 0.5 (≈ 0.53 µM) | 0.0005 (≈ 0.00053 µM) | 0.06 (≈ 0.0636 µM)
3 | COC1C=COC2(C)Oc3c(C)c(O)c4c(=O)c(c5oc6cc(N7CCC(CCO)CC7)cc(O)c6nc-5c4c3C2=O)NC(=O)C(C)=CC=CC(C)C(O)C(C)C(O)C(C)C(OC(C)=O)C1C (centres unmarked) [Compound 61, 3′-hydroxy-5′-[4-(2-hydroxyethyl)-1-piperidinyl]benzoxazinorifamycin] | >8 | 0.004 (≈ 0.00431 µM) | 1 (≈ 1.08 µM) | 0.00012 (≈ 0.000129 µM) | 0.25 (≈ 0.269 µM)
4 | COC1C=COC2(C)Oc3c(C)c(O)c4c(=O)c(c5oc6cc(N7CCC(c8ccccc8)CC7)cc(O)c6nc-5c4c3C2=O)NC(=O)C(C)=CC=CC(C)C(O)C(C)C(O)C(C)C(O)C1C (centres unmarked) [Compound 62, 25-O-deacetyl-3′-hydroxy-5′-[4-phenyl-1-piperidinyl]benzoxazinorifamycin] | >8 | 0.015 (≈ 0.0163 µM) | 8 (≈ 8.71 µM) | 0.008 (≈ 0.00871 µM) | 0.5 (≈ 0.545 µM)
5 | COCCOC(=O)NC1CCN(c2cc(O)c3nc4c5c6c7c(C)c(O)c5c(=O)c(c-4oc3c2)NC(=O)C(C)=CC=CC(C)C(O)C(C)C(O)C(C)C(O)C(C)C(OC)C=COC(C)(O7)C6=O)CC1 (centres unmarked) [Compound 63, 25-O-deacetyl-3′-hydroxy-5′-[4-methoxyethylcarbamyl-1-piperidinyl]benzoxazinorifamycin] | 8 (≈ 8.34 µM) | 0.008 (≈ 0.00834 µM) | 1 (≈ 1.04 µM) | 0.002 (≈ 0.00209 µM) | 0.25 (≈ 0.261 µM)
6 | COC1C=COC2(C)Oc3c(C)c(O)c4c(=O)c(c5sc6cc(N7CC(C)NC(C)C7)ccc6nc-5c4c3C2=O)NC(=O)C(C)=CC=CC(C)C(O)C(C)C(O)C(C)C(OC(C)=O)C1C [Compound 64, 5′-[(3R,5S)-3,5-dimethyl-1-piperazinyl]benzthiazinorifamycin] | 4 (≈ 4.38 µM) | 0.004 (≈ 0.00438 µM) | 0.12 (≈ 0.131 µM) | 0.00012 (≈ 0.000131 µM) | 0.25 (≈ 0.274 µM)
7 | COC1C=COC2(C)Oc3c(C)c(O)c4c(=O)c(c5sc6cc(N7CC(C)NC(C)C7)ccc6nc-5c4c3C2=O)NC(=O)C(C)=CC=CC(C)C(O)C(C)C(O)C(C)C(O)C1C [Compound 65, 25-O-deacetyl-5′-[(3R,5S)-3,5-dimethyl-1-piperazinyl]benzthiazinorifamycin] | 2 (≈ 2.3 µM) | 0.002 (≈ 0.0023 µM) | 0.12 (≈ 0.138 µM) | 0.00025 (≈ 0.000287 µM) | 0.12 (≈ 0.138 µM)
8 | COC1C=COC2(C)Oc3c(C)c(O)c4c(=O)c(c5oc6cc(N7CCC(CCO)CC7)cc(O)c6nc-5c4c3C2=O)NC(=O)C(C)=CC=CC(C)C(O)C(C)C(O)C(C)C(O)C1C (centres unmarked) [Compound 66, 25-O-deacetyl-3′-hydroxy-5′-[4-(2-hydroxyethyl)-1-piperidinyl]benzoxazinorifamycin] | 4 (≈ 4.51 µM) | 0.004 (≈ 0.00451 µM) | 0.12 (≈ 0.135 µM) | 0.0005 (≈ 0.000564 µM) | 0.12 (≈ 0.135 µM)
9 | CCCS(=O)(=O)NC1CCN(c2cc(O)c3nc4c5c6c7c(C)c(O)c5c(=O)c(c-4oc3c2)NC(=O)C(C)=CC=CC(C)C(O)C(C)C(O)C(C)C(O)C(C)C(OC)C=COC(C)(O7)C6=O)CC1 (centres unmarked) [Compound 67] | >8 | 0.008 (≈ 0.00831 µM) | 0.5 (≈ 0.519 µM) | 0.001 (≈ 0.00104 µM) | 0.12 (≈ 0.125 µM)
10 | COC1C=COC2(C)Oc3c(C)c(O)c4c(=O)c(c5sc6cc(N7CC(C)N(CC8CC8)CC7C)ccc6nc-5c4c3C2=O)NC(=O)C(C)=CC=CC(C)C(O)C(C)C(O)C(C)C(OC(C)=O)C1C [Compound 68, 5′-[(2S,5R)-4-(cyclopropylmethyl)-2,5-dimethylpiperazinyl]benzthiazinorifamycin] | >8 | 0.06 (≈ 0.062 µM) | 2 (≈ 2.07 µM) | 0.0005 (≈ 0.000517 µM) | 0.5 (≈ 0.517 µM)

Reference: patent US7271165B2, “Rifamycin analogs and uses thereof” (priority 2003, dated 2007)
